Measured values: patent US20180106782A1, “HIGH THROUGHPUT CARDIOTOXICITY SCREENING PLATFORM” (The Board of Trustees of the Leland Stanford Junior …, priority 2016, published 2018)

Columns and labels:
μpatterned hiPSC-CMs [1] = test: cell movement from brightfield videos of beating μpatterned hiPSC-CMs (cross-correlation within ROI); assay type: cell-based, human; details: for aδ (temporal asynchronicity) / d (displacement) / VR (peak velocity of relaxation) / VC (peak velocity of contraction) / aθ (spatial asynchronicity): brightfield, single cell
Protocol: We imaged the movement of beating hiPSC-CMs and the displacement of fluorescent microbeads embedded in polyacrylamide substrates with a Zeiss Axiovert 200M inverted microscope equipped with a Zeiss Axiocam MRm CCD camera. This microscope also contained an environmental chamber (PeCon) to set temperature at 37° C. Unless otherwise noted, we acquired microscopy videos while electrically pacing hiPSC-CMs with 10 ms-wide bipolar pulses of electric-field stimulation at 10-15 V with a frequency of 1 Hz (Myopacer, lonOptix). To induce contractile changes in hiPSC-CMs, we added drugs known to affect CM contractile machinery to the culture medium. We analyzed the mechanical output of cells after adding drugs. […] We exposed single cells to concentrations of 0.1 μM and then 1 μM of isoproterenol (Sigma, Saint Louis, Mo.) to test how the contractile activity of each cell varied after adding different amounts of isoproterenol to the medium. Omecamtiv mecarbil (Adooq Bioscience, Irvine, Calif.) was also added to the cell culture medium at 10 nM or 0.1 μM to detect different variations in the contractile response of hiPSC-CMs after adding one of these concentrations. We acquired videos of single beating hiPSC-CMs imaged with differential interference contrast microscopy at frame rates higher than 30 fps for a time between 4 and 10 s. We used MATLAB (R2014b version, Mathworks) to convert pixels of each frame to microns. Zeiss files (.czi) contained information on the pixel dimensions and were imported into MATLAB using the Bioformats package. ([…] 2010) We also confirmed the software calibration with calibration slides (Electron Microscopy Sciences). For each video of a beating single cell, we selected a region of interest (ROI) around the borders of the cell and analyzed average displacements within this ROI (FIG. 1B). For this purpose, we selected a baseline frame, within all the frames of the video, which represented the relaxed state of the cell and calculated average displacement within the ROI for the remaining frames relative to the baseline frame. As noted bellow, this procedure was automated. We then calculated displacements from microscopy videos with cross-correlation approaches: digital image correlation (DIC) and particle image velocimetry (PIV) approaches. […] Cross-correlation is done between sub-blocks of the image and the highest correlation indicates the maximum likelihood that blocks match. We tested the following cross-correlation algorithms: PIVIab, ImageJ PIV (Tseng 2012) and Ncorr. PIVIab and Ncorr were written in MATLAB, while ImageJ PIV is a plugin for ImageJ (NIH). Ncorr generally performs better, but uses more computational time. (Blaber 2015) We measured two parameters of asynchronicity of contractile movement within the ROI: spatial asynchronicity (aθ) of contractile movement and temporal asynchronicity (aδ) of contractile movement. Spatial synchronicity occurs when the different regions of the cell move along the same directions and temporal synchronicity occurs when all the regions of the cell move at the same time. To calculate aθ, we first computed the direction of movement (θ) for every movement vector of different regions i inside the ROI (FIG. 1B) at each frame as defined by For the calculation of aδ, we first determined the mean offset time b between the peaks of the displacement curves of different regions i (dcurrent) in the ROI and the peaks of the mean displacement ([…] occurs within the same ROI by mean, cross-correlation between the two curves, then refined this offset result using main peaks only (FIG. 8A): […]

CMs = details: 0.1 μM isoproterenol (Butler 2015); cited from earlier work
hiPSC-CMs = details: 1 μM isoproterenol (Yokoo 2009); cited from earlier work
μpatterned hiPSC-CMs [2] = test: movement of LifeAct-labeled myofibrils in beating μpatterned hiPSC-CMs (cross-correlation, Ncorr); assay type: cell-based, human; details: 1 μM and 10 nM omecamtiv mecarbil (FIG. 11)

## CC(C)NCC(O)c1ccc(O)c(O)c1 (stereo not drawn) [isoproterenol]
μpatterned hiPSC-CMs [1]; ISO 0.1 (μM per FIG. 4), no ISO: 0.01
  aδ (temporal asynchronicity): 0.02 s
μpatterned hiPSC-CMs [1]; ISO 0.1 (μM per FIG. 4), no ISO: 1.09
  d (displacement): 1.3 μm
μpatterned hiPSC-CMs [1]; ISO 0.1 (μM per FIG. 4), no ISO: 3.78
  VR (peak velocity of relaxation): 5.37 μm/s
μpatterned hiPSC-CMs [1]; ISO 0.1 (μM per FIG. 4), no ISO: 6.85
  VC (peak velocity of contraction): 9.3 μm/s
μpatterned hiPSC-CMs [1]; ISO 0.1 (μM per FIG. 4), no ISO: 31.4
  aθ (spatial asynchronicity): 75.5 °
μpatterned hiPSC-CMs [1]; ISO 1 (μM per FIG. 4), no ISO: 0.01
  aδ (temporal asynchronicity): 0.02 s
μpatterned hiPSC-CMs [1]; ISO 1 (μM per FIG. 4), no ISO: 1.09
  d (displacement): 0.68 μm
μpatterned hiPSC-CMs [1]; ISO 1 (μM per FIG. 4), no ISO: 3.78
  VR (peak velocity of relaxation): 3.65 μm/s
μpatterned hiPSC-CMs [1]; ISO 1 (μM per FIG. 4), no ISO: 6.85
  VC (peak velocity of contraction): 5.34 μm/s
μpatterned hiPSC-CMs [1]; ISO 1 (μM per FIG. 4), no ISO: 31.4
  aθ (spatial asynchronicity): 25.3 °
μpatterned hiPSC-CMs [1]; six cells, 0.1 and 1 μM isoproterenol (FIG. 9)
  variations of d, VC, VR, t̂ from brightfield videos between isoproterenol concentrations: did not yield differences in variations of parameters with statistical significance
CMs
  inotropic and chronotropic response in CMs: positive inotropic and positive chronotropic responses
hiPSC-CMs
  beat rate: increase
  mechanical output: decrease

## COC(=O)N1CCN(Cc2cccc(NC(=O)Nc3ccc(C)nc3)c2F)CC1 [omecamtiv mecarbil]
μpatterned hiPSC-CMs [1]; 0.1 μM omecamtiv mecarbil, single cell (FIG. 6H)
  acute dmax from brightfield videos: considerable acute increase
μpatterned hiPSC-CMs [1]; 0.1 μM omecamtiv mecarbil, single cell (FIG. 6I)
  absolute values of VC and VR from brightfield videos, acute: increase
μpatterned hiPSC-CMs [1]; OM 0.1 μM (FIG. 6), row 'acute', no OM: 0.03
  aδ (temporal asynchronicity): 0.21 s
μpatterned hiPSC-CMs [1]; OM 0.1 μM (FIG. 6), row 'acute', no OM: 0.79
  d (displacement): 0.18 μm
μpatterned hiPSC-CMs [1]; OM 0.1 μM (FIG. 6), row 'acute', no OM: 2.87
  VR (peak velocity of relaxation): 0.54 μm/s
μpatterned hiPSC-CMs [1]; OM 0.1 μM (FIG. 6), row 'acute', no OM: 3.53
  VC (peak velocity of contraction): 0.71 μm/s
μpatterned hiPSC-CMs [1]; OM 0.1 μM (FIG. 6), row 'acute', no OM: 44.5
  aθ (spatial asynchronicity): 70.1 °
μpatterned hiPSC-CMs [1]; OM 0.1 μM (FIG. 6), row 'chronic', no OM: 0.03
  aδ (temporal asynchronicity): 0.04 s
μpatterned hiPSC-CMs [1]; OM 0.1 μM (FIG. 6), row 'chronic', no OM: 0.79
  d (displacement): 1.05 μm
μpatterned hiPSC-CMs [1]; OM 0.1 μM (FIG. 6), row 'chronic', no OM: 2.87
  VR (peak velocity of relaxation): 3.42 μm/s
μpatterned hiPSC-CMs [1]; OM 0.1 μM (FIG. 6), row 'chronic', no OM: 3.53
  VC (peak velocity of contraction): 4.35 μm/s
μpatterned hiPSC-CMs [1]; OM 0.1 μM (FIG. 6), row 'chronic', no OM: 44.5
  aθ (spatial asynchronicity): 68.8 °
μpatterned hiPSC-CMs [2]
  myofibril damage at other concentrations: Such level of damage was also observed
